In a melting point compilation (Tetko et al.; mined from patent text by program, amines drawn as free bases though some values may be those of a salt):

In the case of CS(=O)(=O)CCCCC(c1c(F)cccc1F)S(=O)(=O)c1ccc(Cl)cc1 (centres undefined), the melting point was 118 to 119 °C. CCCCCCc1cc2c(s1)-n1c(C)nnc1CN=C2c1ccccc1OC showed a melting point of 128 to 130 °C. Cc1cc2c(cc1O)C(C)(C)CC1(CC(C)(C)c3cc(OC(C)(C)CO)c(C)cc3O1)O2 (centres undefined) gave a melting point of 188 to 189 °C. COc1cc(OC)cc(-c2cc(=O)c3ccc(OCC(O)CNC(C)C)cc3o2)c1 (centres undefined) gave a melting point of 155 to 156 °C. Compound COc1cc(-c2ccccc2)n(-c2ccc(C)cc2)c1-c1ccccc1 has a melting point of 157 to 158 °C. COc1cccc(NC(=O)NC2N=C(c3ccccc3F)c3cccc(C)c3N(CC(=O)N3CC4CCC(CC4)C3)C2=O)c1 (centres undefined) gave a melting point of 241 to 243 °C. In the case of CN1CCOC(CC23CC(c4ccccc42)c2ccccc23)C1 (centres undefined), the melting point was 136 to 137 °C. Cc1cc(OC2CN(C(=O)c3nnc(-c4ccccc4)o3)C2)ccc1CN1CCC(C)(CO)CC1 showed a melting point of 167 °C. With [N-]=[N+]=Nc1ccc(-c2ccc(-c3nc(N)nc(N)n3)cc2)cc1 the melting point was 230 °C. Compound CCCC[C@H](NC(=O)[C@H](CC(C)C)NC(=O)OCc1ccc(C#N)cc1)C(=O)CSCc1ccco1 has a melting point of 83 to 89 °C. In the case of COc1ccc(C2(CCN3CCC(O)(c4nc5ccccc5n4Cc4ccc(F)cc4)CC3)CCN(C(=O)c3ccccc3)C2)cc1OC (centres undefined), the melting point was 111 to 114 °C. O=C(NCCO)/C(=C/c1ccc(Cl)cc1)NC(=O)c1ccc(OCCC2CC2)cc1 gave a melting point of 143 to 145 °C. With CCOc1nn(CCOc2ccc3ccccc3c2CC(=O)O)cc1C(=O)NCc1ccc(Cl)cc1Cl the melting point was 199 to 201 °C. In the case of CN(C)C1CCN(C2c3ccccc3Oc3ccccc32)CC1, the melting point was 92 to 93 °C. Compound CCOC(=O)C1=C(N)NC2=C(C(=O)CCC2)C1c1cccc(C(=O)OCC)c1 (centres undefined) has a melting point of 234 °C. With Oc1c(F)cc(Cn2cc[nH]c2=S)cc1F the melting point was 188 °C. O=c1[nH]cnc2cc(Br)sc12 gave a melting point of 238 to 240 °C. For CC(C)c1cccc(OCc2cc(Br)ccc2C(=O)O)c1, the melting point was 103 to 122 °C. Cc1nc(-c2ccc3cnc(Nc4ccc(N5CCN(C)CC5)cc4)nn23)cn1C gave a melting point of 242 to 244 °C. COc1c2nc(CCl)n(C)c(=O)c2c(OC)c2nc(CCl)n(C)c(=O)c12 showed a melting point of 273 to 274 °C. Cc1oc(-c2ccccc2)nc1COc1ccc([N+](=O)[O-])cc1F showed a melting point of 155 to 156 °C. CC(=O)Nc1ccc2c(c1)NC(=O)C2CC(C)C (centres undefined) gave a melting point of 214 to 216 °C. CCCOc1ccc(OCC(O)CNCCNc2c(C)cccc2C)cc1 (centres undefined) gave a melting point of 51 to 54 °C. With O=C(c1ccccc1)c1ccc(Br)s1 the melting point was 41 to 43 °C. Compound O=Cc1ccc2c(c1)C(=O)OC2 has a melting point of 134 °C. CSCC(C)(C)NC(=O)c1c(I)cccc1C(=O)Nc1ccc(C(C)n2ccc(C(F)(F)F)n2)cc1C (centres undefined) showed a melting point of 79 to 86 °C. COC(=O)C1=C(O)c2c(c3cc(C)ccc3n2C)S(=O)(=O)N1C gave a melting point of 144 to 145 °C. Work on CC(Cn1ccnc1)Cn1nnc2ccc(Cl)cc2c1=O (centres undefined) yielded a melting point of 100 to 102 °C. Work on CNC(=S)N1CCC(c2nn(-c3ccc(F)cc3)c3ccccc23)CC1 yielded a melting point of 179 to 181 °C. Compound CN(C1CCN(Cc2ccc(F)cc2)CC1)S(=O)(=O)c1ccc(Nc2nccc(Nc3ccc(F)cc3)n2)cc1 has a melting point of 129 to 131 °C. Work on CCCCOc1cc(CCS(=O)(=O)NC(=O)OCCOC)n(Cc2ccc(Cl)cc2Cl)n1 yielded a melting point of 82 to 86 °C. CCOC(=O)c1ncc2[nH]c3ccc(Br)cc3c2c1COC showed a melting point of 207 to 209 °C. CN1CC(C(Oc2ccccc2[N+](=O)[O-])c2ccccc2)OCC1=O (centres undefined) showed a melting point of 192 to 195 °C. In the case of Cc1cc(C)c(-n2[nH]c(Nc3ccc(Cl)cc3)cc2=O)c(C)c1N, the melting point was 236 to 237 °C. With Cc1ccc(F)cc1C(=O)Nc1ccc(C(=O)N2Cc3ccnn3Cc3ccccc32)cn1 the melting point was 250 to 260 °C. Work on COc1ccccc1CN1CCc2cc(O)ccc2C1 yielded a melting point of 148 to 155 °C. O=C(NC(CO)CO)OCc1ccccc1 showed a melting point of 104 to 106 °C. Work on NS(=O)(=O)c1ccc(-n2nc(C(F)(F)F)c(CO)c2-c2ccccc2)cc1 yielded a melting point of 179 to 180 °C. For N#Cc1cc(-c2cc(C(F)F)c3c(-c4cccnc4)n[nH]c3n2)ccc1N, the melting point was 296 °C. CCCc1nn(-c2ccc(C(F)(F)F)cn2)cc1CCCOc1ccc(CCC(=O)O)cc1OC gave a melting point of 126 to 127 °C. Cc1c(-c2ccc(Cl)c(C(=O)N(C)C)c2)sc2nc(N)[nH]c(=O)c12 gave a melting point of 300 to 320 °C. With O=C(NC1N=C(c2ccccc2)c2ccccc2NC1=O)c1c[nH]c2ccccc12 (racemic) the melting point was 265 to 268 °C. With COc1ccc(C2C3=C(COC3=O)Nc3ccc4cn[nH]c4c32)cc1[N+](=O)[O-] (centres undefined) the melting point was 217 to 218 °C. With CC(=O)CCCCc1ccc(-c2ccccc2F)cc1 the melting point was 37 to 38 °C. In the case of Cc1ccc2oc(=O)c(=O)oc2c1, the melting point was 121 to 123 °C. COc1cc2c(cc1OC)[C@@H]1CCCC[C@@H]1N=C2c1ccc([N+](=O)[O-])c([N+](=O)[O-])c1 gave a melting point of 162 to 165 °C. Compound CC(C)(C)OC(=O)N1CCC(CI)CC1 has a melting point of 58 to 59 °C. Work on O=C(O)c1cc(CCl)cnc1C(=O)O yielded a melting point of 170 to 172 °C. For COC(=O)C1=C(C)NC(C)=CC1c1ccccc1OCc1ccc(C)cc1 (centres undefined), the melting point was 107 to 109 °C. CN1CCN(C2=Cc3ccccc3Oc3ccccc3C2)CC1 gave a melting point of 127 °C. CN1CCN(CCOc2ccc(Nc3ncc4ccc(-c5cccnc5)n4n3)cc2)CC1 gave a melting point of 107 to 110 °C. Cc1csc(=S)n1OC(=O)c1ccccc1 gave a melting point of 100 to 102 °C. With CCNC(=S)Nc1ccc(NNC(C)=O)cc1 the melting point was 191 to 193 °C. Compound CCCCCCOc1ccc(N=C(NC#N)NCCC(C)(C)C)cc1 has a melting point of 183 to 184 °C. In the case of O=C(O)CCC(=O)N1CCN(c2ccncc2)CC1, the melting point was 261 to 263 °C. Work on CN1CCC(C2=Nc3ccccc3N(C)c3ccccc32)CC1 yielded a melting point of 119 to 121 °C. In the case of COc1cc(OC)c(C(=O)N(C)OC)cc1Cl, the melting point was 97 to 99 °C. For CC1=C(CC(=O)O)c2cc(F)ccc2C1, the melting point was 164 to 166 °C. Compound O=C1COc2cc(SCc3ccccc3)ccc2N1 has a melting point of 153 to 154 °C. With CS(=O)(=O)NC1CCN(Cc2ccccc2)CC1 the melting point was 135 to 136 °C. In the case of COc1ncccc1OCC1(c2onc(-c3ccc(O)cc3)c2-c2ccccc2)CC1, the melting point was 189 to 190 °C. Compound C=CCSc1cc(C(=O)O)cc(N=Nc2cc(C(=O)O)cc(SCC=C)c2C(=O)c2ccccc2)c1C(=O)c1ccccc1 has a melting point of 162 to 163 °C. Compound COc1ccc(C2CC(=O)OC(=O)C2)cc1 has a melting point of 144 to 149 °C. In the case of OCc1cc2ccccc2cc1CO, the melting point was 161 to 162 °C. Work on CC(C)c1csc(C(C)C)c1NC(=S)NC(C)(C)C yielded a melting point of 168 to 169 °C. For CCNC(=O)C1OC(n2cnc3c(NNC(=O)c4ccccc4)ncnc32)C2OC(C)(C)OC12 (centres undefined), the melting point was 116 to 117 °C. With CN1CC(CCN2CCN(c3ccc([N+](=O)[O-])cc3)CC2)OC1=O (centres undefined) the melting point was 155 to 156 °C. Compound CCCC(CCC)Nc1cc(C)nc(Cl)c1N has a melting point of 139 to 140 °C. O=C(O)COCCC1CCN(c2cnc(-c3ccccc3)c(-c3ccccc3)n2)CC1 gave a melting point of 173 to 174 °C. CC(C)[C@H](NC(=O)OCc1ccccc1)C(=O)NC(Cc1ccccc1)C(O)C(Cc1ccccc1)NC(=O)[C@@H](NC(=O)OCc1ccccc1)C(C)C (some centres undefined) gave a melting point of 198 to 200 °C. Work on CC(=O)Nc1ccc(C(=O)NC2CCN(C3CCCCC3)C2)cc1 (centres undefined) yielded a melting point of 184 to 186 °C. Work on CCOC(=O)C(CCc1ccccc1)N[C@H]1CSC(c2ccccc2)N(CC(=O)O)C1=O (some centres undefined) yielded a melting point of 47 to 52 °C. Compound CCn1c(=O)ccn(-c2ccc(N3CCN(c4ccc(OC)cc4)CC3)cc2)c1=O has a melting point of 210 °C. CCCc1c(COc2ccc(C(=O)c3cccc(C#N)c3)cc2)ccc(C(C)=O)c1O gave a melting point of 146 to 148 °C. With CCn1c(Oc2cccc(N3CCC(O)CC3)c2)nnc1[C@@H](C)NS(=O)(=O)c1ccc(Cl)c(Cl)c1 the melting point was 168 to 170 °C. For O=C1NC(=O)C(CC#Cc2cc(C(F)(F)F)cc(C(F)(F)F)c2)(S(=O)(=O)c2ccccn2)S1 (centres undefined), the melting point was 150 to 152 °C. COCCCc1cc(F)c2ncc(C(=O)NCc3ccc(Cl)cc3)c(O)c2c1 showed a melting point of 189 to 192 °C. In the case of Cc1cccc(-c2nc(Cl)cc(-c3ccccc3Cl)n2)n1, the melting point was 133 °C. CCOC(=O)C(CCCCCCCCCCCCC(C(=O)O)C1CC1)C1CC1 (centres undefined) showed a melting point of 36.9 to 38.2 °C. For COc1cc(OC)cc(-c2ncoc2-c2ccc3c(c2)NCCO3)c1, the melting point was 175 to 178 °C. Work on COC(=O)c1nn(-c2ccc(I)cc2F)cc(OC)c1=O yielded a melting point of 160 to 162 °C. With CCOC(=O)COc1ccc2c(=O)c3ccccc3oc2c1Cl the melting point was 183 to 185 °C. Compound CN1C(=O)CC(c2ccccc2)C1C(O)c1ccc(Br)s1 (centres undefined) has a melting point of 105 °C. Work on CCn1nnc(NC(=O)C2c3ccccc3Cc3ccccc32)n1 yielded a melting point of 206 to 207 °C. Work on COC(=O)N1CCC[C@@H](OC)[C@@H]1CC(=O)Cn1cnc2ccc(C(F)(F)F)cc2c1=O (relative stereo) yielded a melting point of 137 to 140 °C. With O=C(OC(c1ccccc1)c1ccccc1)C1=CCC2CC(=O)C12 (centres undefined) the melting point was 115 to 116 °C. Compound CCCCN=C(O)c1c(Sc2ccc([N+](=O)[O-])cc2)c(Sc2ccccc2)c(Sc2ccccc2)c(Sc2ccc([N+](=O)[O-])cc2)c1C(=O)O has a melting point of 175 to 177 °C. In the case of CC(=O)OCCS(=O)(=O)C(F)(F)C(O)(Cn1cncn1)c1ccc(F)cc1F (centres undefined), the melting point was 77 to 80 °C. CCc1ccc(C(=O)O)c2ccccc12 showed a melting point of 125 to 127 °C. Compound NCCCc1cc(Nc2nc(-c3ccccc3)nc3ccccc23)[nH]n1 has a melting point of 205 to 207 °C. COc1ccc(/C=C/C(=O)Nc2ccccc2C(N)=O)cc1OC gave a melting point of 184 to 186 °C. CC(=O)NC(=O)CSCc1ccccc1 showed a melting point of 86 to 87 °C. Compound COC(=O)C=C1NCC(CO)OC1=O (centres undefined) has a melting point of 112 to 114 °C. Work on NCCSc1cc(N)c([N+](=O)[O-])cc1N yielded a melting point of 149 °C. O=C(Oc1ccc([N+](=O)[O-])cc1)c1cccc2c(Cl)c3ccccc3nc12 showed a melting point of 194 to 196 °C. For CC(C)C(C(=O)O)N(C)C(=O)OC(C)(C)C (centres undefined), the melting point was 83 to 85 °C. Work on CS(=O)(=O)Nc1cccc(C=C2SC(=S)NC2=O)c1 yielded a melting point of 260 to 265 °C. For CCO[C@H]1c2ccc3c(nc(C)n3C)c2N[C@H](c2ccccc2)[C@H]1O, the melting point was 170 °C. CC(C)(C)C(O)(Cn1cncn1)C1CCCCC1 (centres undefined) gave a melting point of 100 to 102 °C.
